Data: patent US11840523B2, “IRE1α inhibitors and uses thereof” (The Regents of the University of California, priority 2020, dated 2023)

Assays:
[1] = target: dpIRE1α* (Homo sapiens (Human), UniProt O75460); test: In vitro Kdimer assay (XBP1-mini substrate cleavage) with dpIRE1α*; format: biochemical; details: FIG. 4; for fold lowering of Kdimer of dpIRE1α* when kinase domain complexed to ligand: versus apo dpIRE1α*, FIG. 1D
Description: (§1) In order to better understand how to achieve an optimal intermediate RNase activation state through engagement of IRE1α's kinase domain, we first established a quantitative in vitro framework for characterizing how ATP-binding site occupancy influences RNase activity. […] This dimeric state-commonly referred to as the “back-to-back” dimer—is characterized by an extensive interface between the kinase and RNase domains of each IRE1α protomer; this dimeric state can be promoted through mass action as IRE1α concentration is raised. […] Furthermore, ligands that occupy the ATP-binding site of the kinase domain can also stimulate IRE1α's RNase activity by promoting dimer formation. We measured the ability of a purified, recombinant kinase/RNase domain construct of IRE1α-called IRE1α* to cleave a FRET-quenched XBP1 RNA mini-substrate as a function of IRE1α* concentration, in order to provide a quantitative metric of IRE1α's dimer affinity (Kdimer) (FIG. 1). […]
IRE1α* or dPIRE1α* was titrated from either 2 μM or 4 μM in two-fold serial dilutions in assay buffer (20 mM Tris, 50 mM sodium chloride, 1 mM MgCl2, 2 mM DTT, 0.05% Triton X-100 (v/v), pH 7.5) and incubated with 50 μM inhibitor for 30 minutes at room temperature. […] Fluorescence was detected on a Perkin Elmer Envision Microplate Reader at excitation and emission wavelengths of 650 nm and 665 nm. Reaction process was monitored real time in 10-second intervals for at least 30 minutes. Initial rates of XBP1-cleavage were determined for each respective IRE1α* of dpIRE1α* concentration. Specific activity was then determined by dividing rate (RFU/s) by the respective IRE1α* of dpIRE1α* used (RFU/s*[IRE1α]). Kdimer values were determined by fitting these values using the non-linear regression ‘one-site total’ binding parameter in GraphPad Prism analysis software.

[2] = target: T1, IRE1α (Homo sapiens (Human), UniProt O75460); test: In vitro kinase activity assay (IC50 IRE1α kinase inhibition); format: biochemical
Protocol: A construct containing the cytosolic kinase and RNase domains of human IRE1α (residues 547-977, IRE1α*) was expressed in SF9 insect cells by using the Bac-to-Bac baculovirus expression system (Invitrogen) with a His6 tag at the N-terminus and purified with a nickel-nitriloacetic acid (Qiagen) column. To generate dP-IRE1α*, we removed basal phosphorylation sites by incubating IRE1α* with λ-PPase (New England Biolabs) at a molar ratio of 5:1 (IRE1α*: X-PPase) in 50 mM HEPES pH 7.5, 100 mM NaCl, 1 mM MnCl2, 2 mM dithiothreitol (DTT) and 0.01% Brij 35 detergent (v/v) overnight at 4° C. Dephosphorylation was verified through western blotting using a universal phospho-protein detection agent (biotin-pIMAGO (Tymora Analytical Operations, Cat. No.: FL800) and imaged using a streptavidin-linked fluorophore.
In Vitro Kinase Activity Assay
Inhibitors (initial concentration of 10 or 60 μM, three-fold serial dilutions) were incubated with IRE1α* in cleavage buffer (20 mM HEPES, 0.05% Triton X-100 (v/v), 50 mM KCl, 1 mM MgCl2, 1 mM DTT, pH 7.5) for 30 min, followed by incubation with 10 μCi [γ^32P] ATP(3,000 Ci mmol^−1, PerkinElmer) at 23° C. for 3 hours. Samples were then spotted onto glass fiber paper (Easytab-C Glass Fiber Filter Paper, Perkin Elmer) and washed in twice with 0.5% phosphoric acid and autoradiographed using a GE Typhoon FLA 9000 Imager. Blots were quantitated using ImageQuant software. The percent inhibition was quantified by setting the background (no kinase well) as 0 and standardizing to IRE1α* without compound treatment (IRE1α*+DMSO). Dose-response curves were fit using “one-site fit logIC50” parameter using GraphPad Prism analysis software.
Compound Characterization (IC50 IRE1α Kinase Inhibition)

[3] = target: T1, IRE1α; test: In vitro Kdimer assay (XBP1-mini substrate cleavage) with IRE1α*; format: biochemical; details: ligand-bound IRE1α*; FIG. 1E, FIG. 5
Description: as §1
IRE1α* or dPIRE1α* was titrated from either 2 μM or 4 μM in two-fold serial dilutions in assay buffer (20 mM Tris, 50 mM sodium chloride, 1 mM MgCl2, 2 mM DTT, 0.05% Triton X-100 (v/v), pH 7.5) and incubated with 50 μM inhibitor for 30 minutes at room temperature. […] Fluorescence was detected on a Perkin Elmer Envision Microplate Reader at excitation and emission wavelengths of 650 nm and 665 nm. […]

[4] = test system: XBP1 splicing in INS-1 cells; test: XBP1 splicing in ER-stressed INS-1 cells; format: cell-based, rat; details: INS-1 cells treated with brefeldin A or thapsigargin; FIG. 6
Protocol: INS-1s (rat insulinoma beta cells) were grown in RPMI, 10% FBS buffer (v/v), 1 mM sodium pyruvate, 10 mM HEPES, 2 mM glutamine and 50 μM β-mercaptoethanol on Poly-D-Lysine coated tissue culture flasks. IRE1α (murine) was cloned into a pcDNA5/FRT/TO. INS-1 FRT/TO cells were grown following the protocol above. INS-1 FRT/TO cells were transfected with 2 μg IRE1α-pcDNA5/FRT/TO and 2 μg pOG44 using Lipofectamine 2000 (Thermo Fisher). Cell media was exchanged the next day and cells were allowed grow for another day before passaging. Selection was performed using 50 μg/mL Hygromycin-B (Thermo Fisher) over about two weeks until all un-transfected cells have died and colonies have appeared in transfected cells. Stably integrated cells were maintained in RPMI, 10% FBS buffer (v/v), 1 mM sodium pyruvate, 10 mM HEPES, 2 mM glutamine and 50 μM β-mercaptoethanol, […] Hygromycin-B. HEK293 cells were grown in DMEM High Glucose media (Gibco) supplemented with 10% FBS. […]
INS-1 or isogenic IRE1α-overexpressing INS-1 cells were plated onto Poly-D-Lysine coated tissue culture plate and grown for 48 hrs. […] PCR fragments were then digested by PstI, resolved on 3% agarose gels, stained with EtBr and quantified by densitometry using ImageJ (NIH). For standard mRNA detection, generally […] total RNA was reverse transcribed using the QuantiTect Reverse Transcription Kit (QIAGEN). […]

T1 sequence (O75460 547-977): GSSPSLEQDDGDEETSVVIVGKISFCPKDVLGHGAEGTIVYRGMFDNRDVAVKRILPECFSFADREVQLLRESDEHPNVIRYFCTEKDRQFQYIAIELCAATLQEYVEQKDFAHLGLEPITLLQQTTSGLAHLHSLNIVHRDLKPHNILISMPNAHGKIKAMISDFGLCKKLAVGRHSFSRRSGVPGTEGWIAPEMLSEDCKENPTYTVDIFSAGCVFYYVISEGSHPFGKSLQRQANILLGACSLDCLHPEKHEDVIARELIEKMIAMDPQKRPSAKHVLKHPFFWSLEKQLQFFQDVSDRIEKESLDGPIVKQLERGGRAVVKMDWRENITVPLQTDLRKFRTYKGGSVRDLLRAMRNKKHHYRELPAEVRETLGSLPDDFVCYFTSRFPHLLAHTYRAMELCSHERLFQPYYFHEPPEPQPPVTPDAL
Chain of dpIRE1α* (O75460 547-977): as above

O=C(Nc1c[nH]nc1-c1nc2ccc(CN3CCOCC3)cc2[nH]1)NC1CC1 [AT9283]
fold lowering of Kdimer of dpIRE1α* when kinase domain complexed to ligand [1]: over 80 fold

CCc1cc(-c2ccc(NS(=O)(=O)CCC(F)(F)F)nc2OC)cc2cnc(N[C@H]3CC[C@H](N)CC3)nc12 [LBC-0000406, N-(5-(2-(((1r,4r)-4-aminocyclohexyl)amino)-8-ethylquinazolin-6-yl)-6-methoxypyridin-2-yl)-3,3,3-trifluoropropane-1-sulfonamide]
IC50 [2]: 7.4 nM

CCc1cc(-c2ccc(NS(=O)(=O)C3CC3)nc2OC)cc2cnc(N[C@H]3CC[C@H](N)CC3)nc12 [LBC-0000408, N-(5-(2-(((1r,4r)-4-aminocyclohexyl)amino)-8-ethylquinazolin-6-yl)-6-methoxypyridin-2-yl) cyclopropane sulfonamide]
IC50 [2]: 5.1 nM

Cc1ccc2c(NS(=O)(=O)c3ccccc3Cl)cccc2c1Oc1ncccc1-c1ccnc(N[C@H]2CCCNC2)n1 [KIRA8]
formation of RNase active dimers of IRE1α* [3]: unable to form RNase active dimers at any concentration tested
XBP1 splicing [4]: completely suppresses XBP1 splicing

NC(=O)Nc1cc(-c2cccc(F)c2)sc1C(=O)N[C@H]1CCCNC1 [AZD7762]
formation of RNase active dimers of IRE1α* [3]: promotes the formation of the RNase active dimer
formation of the RNase active dimer of dpIRE1α* ([1]; dpIRE1α*-ligand complex): promotes the formation of the RNase active dimer
fold lowering of Kdimer of dpIRE1α* when kinase domain complexed to ligand [1]: over 80 fold

CCc1cc(-c2ccc(NS(=O)(=O)CC(F)(F)F)nc2OC)cc2cnc(N[C@H]3CC[C@H](N)CC3)nc12 [LBC-0000407, N-(5-(2-(((1r,4r)-4-aminocyclohexyl)amino)-8-ethylquinazolin-6-yl)-6-methoxypyridin-2-yl)-2,2,2-trifluoroethane-1-sulfonamide]
IC50 [2]: 7.5 nM

CCc1cc(-c2ccc(NS(=O)(=O)c3ccccc3Cl)nc2OC)cc2cnc(N[C@H]3CC[C@H](N)CC3)nc12 [LBC-0000405]
IC50 [2]: 5.1 nM
